A melting point compilation (Tetko et al.; mined from patent text by program, amines drawn as free bases though some values may be those of a salt)

| SMILES | melting point [°C] |
| --- | --- |
| O=C1NC(c2ccccc2)C(=O)NC1c1ccccc1 (stereo not given) | 282 to 284 |
| Cc1cccc(N2CCN(c3ccc(=O)[nH]n3)CC2)c1 | 210 |
| CCCCCCCCCCCCN1C(C)(C)CC(O)CC1(C)C | 41 to 42 |
| Cc1ccc(F)c2c1N(CC1CCCO1)C(=O)C21COc2cc3c(cc21)CCO3 (stereo not given) | 175 to 176 |
| CSc1nc2ccc(C(F)(F)F)cc2[nH]1 | 145 to 146 |
| CCCc1c(OCCCSc2nc3ccc(C(=O)O)cc3[nH]2)ccc(C(C)=O)c1O | 106 to 108 |
| O=C(Nc1ccc(Cl)cc1)NC1N=C(c2ccccc2F)c2ccccc2NC1=O (racemic) | 278 |
| CCCCCCc1cc2c(s1)-n1c(C)nnc1CN=C2c1cccc(C)c1 | 57 to 59 |
| O=C(O)c1cccc(-c2ncn(-c3ccc(N4CCCC4)cc3)n2)c1 | 263 to 265 |
| Cn1c(=O)cc(-c2cccc(Cl)c2)c2cc(C(N)(c3ccc(Cl)cc3)c3cnccc3Cl)ccc21 (stereo not given) | 180 |
| CCc1ccc(Cl)c(S(=O)(=O)NC(=O)c2cn3cc(C(F)(F)F)cc(Cl)c3n2)c1 | 214 to 215 |
| COC(=O)CCCC#Cc1cc(C)c2oc(=O)n(C)c2c1 | 97 to 98 |
| O=C(CN1CCOCC1)Nc1ccc2c(c1)Cc1cn[nH]c1-2 | 141 to 148 |
| CN1C(=O)C2(COc3cc4c(cc32)OCO4)c2ccccc21 (stereo not given) | 142 to 144 |
| CCOC(=O)c1c(CBr)cccc1S(N)(=O)=O | 138 to 140 |
| Cc1ccc(S(=O)(=O)OCCCCCCCn2c3c(c4ccccc4c2=O)C(=O)c2ccccc2-3)cc1 | 123 to 126 |
| Cn1c(N2CC3CC2CN3C(=O)OC(C)(C)C)nc(-c2ccncn2)cc1=O (stereo not given) | 198 to 200 |
| CC(C)C(=NSN(C)C(=O)Oc1cccc2c1OC(C)(C)C2)Sc1ccccc1 | 104 to 106 |
| CCCCNC(=O)Nc1cccc2c1C(=O)c1c-2n[nH]c1-c1ccc(OC)cc1 | 252 |
| CCS(=O)(=O)c1cc(C(=O)NCC2CCCN2CCC2CC2)c(OC)cc1N (stereo not given) | 209 |
| COc1ccc(S(=O)(=O)NCCCCCCCC(=O)O)cc1 | 102 to 103 |
| CC(=Cc1ccccc1)c1cc2c(cc1C)C(C)(C)CCC2(C)C | 75 to 77 |
| COC(=O)C1=CCC(=C2CCC3=C(N=C(C(C)C)C(C(C)C)N3)C2=O)C=C1 (stereo not given) | 100 to 102 |
| CC(C(=O)NCc1cccs1)(c1ccccc1)c1ccccc1 | 90 to 91 |
| CCOC(=O)Cc1sc(Sc2nccc(C)c2C(=O)O)nc1C | 169 to 171 |

| SMILES | melting point [°C] |
| --- | --- |
| CCOC(=O)c1cc(-n2c(=O)c3c(n(C)c2=O)CCC3)ccc1Cl | 141 to 143 |
| COC(=O)C(C)(C)c1ccc(C(=O)Nc2cn3cc(Cl)ccc3n2)cc1 | 245 to 246 |
| Cc1ccc(Sc2cncc3sc(C(N)=O)cc23)c(C)c1 | 193 to 195 |
| Cc1nc2c(OCc3c(Cl)ccc(N(C)C=O)c3Cl)cccn2c1Br | 207 to 209 |
| O=c1[nH]c(=O)c2cn(C3CCCC3)nc2[nH]1 | > 300 |
| COCC(C)Oc1cc(-n2c(=O)cc(C(F)(F)F)n(C)c2=O)c(F)cc1Cl (stereo not given) | 80 to 82 |
| Cc1nn(C)c(C(N)=O)c1Cl | 101 |
| CCN(C)C1=NS(=O)(=O)c2cccc(OC)c21 | 154 to 156 |
| CCOC(=O)[C@H](Cc1cccc(Oc2ccc(O)cc2)c1)NC(=O)C(F)(F)F | 109 to 111 |
| CCP(=O)(CC)C(O)[C@H](CC1CCCCC1)NC(=O)[C@H](CC(C)C)NC(=O)[C@H](Cc1ccccc1)NC(=O)C1CCCC1 (stereo not given in full) | 170 to 171 |
| COc1ccc(-c2[nH]nc3c2C(=O)c2c(NC(=O)CN4CCNCC4)cccc2-3)cc1 | 277 |
| CCCCCCCCOC(=O)COc1cc(F)ccc1C(=O)NCc1cccc([N+](=O)[O-])c1 | 72 to 74 |
| O=C(O)C1(c2ccc(CN3CCN(c4ccc(F)cc4F)CC3)cc2)CC1 | 70 to 74 |
| O=C(OCc1ccccc1)c1ncoc1CCNC(=O)[C@H](Cc1cccs1)N[C@@H](CCc1ccccc1)C(=O)OCc1ccccc1 | 81 to 83 |
| COC(=O)Nc1cccc(OCC(O)CN(Cc2ccccc2)C(C)(C)C)c1O (stereo not given) | 130 to 133 |
| CCCN(CC(=O)NC12CC3CC(CC(C3)C1)C2)C(=O)NCCCc1ccncc1 | 132 |
| CC(C)(C)OC(=O)N1CCN(c2[nH]nc(-c3ccc(Cl)cc3)c2-c2ccncc2)CC1 | 204 to 205 |
| CC(C(=O)O)c1ccc2oc(Nc3ccc(Cl)cc3)nc2c1 (stereo not given) | 206 to 208 |
| COc1ccc(C=O)cc1-c1cccs1 | 137 to 138 |
| CC(C)(C)OC(=O)C1CC(c2ccc(-c3ccc(N4C[C@H](Cn5ccnn5)OC4=O)cc3F)cn2)=NO1 (stereo not given in full) | 165 to 168 |
| CCNc1nc(Cl)ccc1C(=O)O | 158 to 160 |
| CCCc1cc2c(cc1O)CCO2 | 73 to 74 |
| Fc1cccc(Cn2ncc3cc(Nc4ncnc5cnc(F)cc45)ccc32)c1 | 218 to 221 |
| COc1nc(=O)c(Cc2ccc(C)nc2)c[nH]1 | 145 to 147 |
| COC1CC(N2CCCC2)C(N(C)C(=O)COc2cccc(F)c2)CC1OC (stereo not given) | 119 to 121 |

| SMILES | melting point [°C] |
| --- | --- |
| COC(=O)C(c1ccc(Cl)cc1)c1ncc(C(F)(F)F)cc1Cl (stereo not given) | 103 to 104 |
| CCOC(=O)c1nc(-c2ccc(C(C)(C)C)cc2)[nH]c1-c1ccc([N+](=O)[O-])cc1 | 190 to 191 |
| Brc1ccc(-c2ccc(Br)cc2I)c(I)c1 | 89 |
| O=[N+]([O-])c1ccc(Oc2ccc3c(c2)OCCC3Cl)cc1 (stereo not given) | 67 to 68 |
| COc1ccc2cc(CC(=O)O)ccc2c1 | 173 to 174 |
| CCOC(=O)C1(C)OC(C)=C(O)C1=O (stereo not given) | 89.2 to 89.5 |
| COc1ccnc(CCc2nc3cc(C)cnc3[nH]2)c1 | 150 to 152 |
| C[Si](C)(C)N1Cc2ccccc2P1(=O)c1ccccc1 (stereo not given) | 90 to 94 |
| Nc1ccccc1Sc1ccccc1-c1nnn[nH]1 | 153 to 156 |
| CCOC(=O)c1nc(C=Cc2cccc(C(F)(F)F)c2)oc1C | 103 to 104 |
| COc1cc(C(C)=O)ccc1OCCCN1C2CCC1CC(c1nsc3cc(F)ccc13)C2 (stereo not given) | 118 to 119 |
| COc1cc(NC(=O)CCCCCN2CCN(c3ccc(Cl)c(Cl)c3)CC2)c2nccc(C)c2c1 | 99 to 100 |
| O=C1NC(=S)NC(=O)C1c1ccccc1F | > 240 |
| CCCCNC(=O)Oc1ccccc1 | 39 to 40 |
| CO[Si](OC)(OC)c1ccc(C#Cc2ccc(C#Cc3ccc([Si](OC)(OC)OC)cc3)cc2)cc1 | 164 to 166 |
| CC(C)(C)C(S)(CC#N)C(C)(C)C | 154 to 155 |
| COC(=O)COc1cccc2c(O)cccc12 | 177 to 179 |
| COC(=O)c1ccccc1S(=O)(=O)NC(=O)Nc1nc(OC)cc(OC)n1 | 185 to 190 |
| CCCc1c(C(=O)OC)[nH]c2c(C)ccc(Cl)c12 | 109 to 110 |
| O=C(OCC1CC1)c1ncn2c1[C@@H]1CCN1C(=O)c1cc(F)ccc1-2 | 171 to 172 |
| COC(=O)c1ccc(NC(=O)CCc2cnoc2-c2ccccc2)cc1 | 111 to 112 |
| O=Cc1nn(-c2ccc([N+](=O)[O-])cc2)c2c1CCCC2 | 147 to 148 |
| CC[C@@H]1O[C@](C#CC2CC2)(C(F)(F)F)c2c(ccc3c2OCO3)NC1=O (relative stereo) | 201 to 202 |
| CN(C)C(=O)Cn1c(-c2cccc(C(F)(F)F)c2)nc2cccnc21 | 136 to 138 |
| O=C(c1ccc(Cl)cc1)c1cc([N+](=O)[O-])ccc1N1CCC(O)CC1 | 142 |

| SMILES | melting point [°C] |
| --- | --- |
| CC(CCn1cnc2ccccc21)NCC(O)COc1ccc(CC(N)=O)cc1 (stereo not given) | 139 to 142 |
| CCOC(=O)C(=O)Nc1nc(C)cs1 | 171 to 173 |
| Cc1ccc(NC(=O)c2ccc(CN3CCN(C)C(=O)C3)cc2)cc1Nc1nccc(-c2cccnc2)n1 | 187 to 192 |
| O=C(Oc1ccc(Cl)cn1)c1cc2cc([N+](=O)[O-])ccc2oc1=O | 287 to 289 |
| Cc1cc(O)n2nc(S(=O)(=O)Nc3ccccc3C(F)(F)F)nc2n1 | 245 to 247 |
| OC1CCN(CCCOc2ccc3cc(-c4n[nH]c5cc(-c6ccccc6)sc45)[nH]c3c2)CC1 | 239 to 242 |
| COc1cc(C(C)(C)C)c(OC(C)=O)c(C(C)(C)C)c1CC(C)=O | 133 |
| Cc1cc(C)c(CSc2ccccc2)c(-c2ccc(F)c(C)c2)c1 | 72 to 74 |
| CCOC(=O)C=Cc1cc(C=CS(=O)(=O)c2ccccc2)cc(Cc2cccnc2)c1 | 118 to 120 |
| OCc1cc(-c2ccc(Cl)cc2)nc2ccnn12 | 185 to 186 |
| COCCOc1ccc(/C=C/C(=O)NS(=O)(=O)CC(F)(F)F)c(Oc2ncc(C(F)(F)F)cc2Cl)c1 | 146 to 148 |
| CCCc1c(OCCOc2cccc(C(=O)NCCCCc3cccnc3)c2)ccc(C(C)=O)c1O | 90 |
| CCCCC(=O)c1c(CBr)nc2cc(OC)c(OC)cc2c1-c1ccc(OC)c(OC)c1 | 150 to 151 |
| C[C@H](NC(=O)C[C@H](O)C[C@H](O)/C=C/c1c(C2CC2)nc2ccccc2c1-c1ccc(F)cc1)c1ccccc1 | 57 to 76 |
| CCCCc1c(/C=C/C(=O)OC)ccc2cc(OC)ccc12 | 71 to 72 |
| CC(=O)SC(CC(=O)c1ccccc1C)C(=O)O (stereo not given) | 106 to 108 |
| N#CCC(C#N)=CNc1c(Cl)cc(C(F)(F)F)cc1Cl | 122 |
| COc1cc(C(=O)N2Cc3cccn3Cc3ccccc32)ccc1[N+](=O)[O-] | 191 to 192 |
| Nc1nc(N)c2c(ccc3[nH]c4c(c32)CCCC4)n1 | 300 to 303 |
| CC(F)=C1CCC2C3CC=C4CC(O)CCC4(C)C3CCC12C (stereo not given) | 129 to 133 |
| COc1ccc(CCNC(=O)C2CCCCC2)cc1OC | 110 to 111 |
| CN1Cc2c(C(=O)OC(C)(C)C)ncn2-c2cccc(Cl)c2C1=O | 188 to 190 |
| CCOc1ccc([N+](=O)[O-])c(NN2CCOCC2)c1 | 152 |
| CN(Cc1ccc(COOC(=O)NC(Cc2ccccc2)C(=O)O)cc1)c1ccccc1 (stereo not given) | 69.6 to 70.1 |
| COc1ccc(Br)cc1CN1CCC(=O)C(C(c2ccc(F)cc2)c2ccc(F)cc2)C1 (stereo not given) | 129 to 130 |
